According to patent US20200199692A1, “LACTIC BACTERIA AND THE USE THEREOF FOR THE PREVENTIVE, INHIBITORY AND/OR REDUCTIVE TREATMENT OF THE FORMATION OF BACTERIAL BIOFILMS” (PROBIOTICAL S.P.A., priority 2016, published 2020):
Values after ≈ are worked out from the molar mass of the structure shown. Read-outs that look alike come from different tables or passages of the source.

What was measured:
[1] = tested on: Lactobacillus paracasei LMC-8 ID 1954 DSM 32258; experiment: Antibiotic resistance profile (E-test, ABBiodisk); assay type: cell-based
Commercial Lactobacillus = experiment: Antibiotic resistance profile (E-test, ABBiodisk); assay type: cell-based
[2] = tested on: Lactobacillus plantarum LMC-1 ID 1952 DSM 32252; experiment: Antibiotic resistance profile (E-test, ABBiodisk); assay type: cell-based
[3] = tested on: Commercial Bifidobacterium; experiment: Antibiotic resistance profile (E-test, ABBiodisk); assay type: cell-based
[4] = tested on: Lactobacillus paracasei LMC-4 ID 1953 DSM 32254; experiment: Antibiotic resistance profile (E-test, ABBiodisk); assay type: cell-based
Lactobacillus paracasei = conditions: Tables 8 and 12 (L. paracasei); Linezolid from EFSA 2005, Quinupristin/Dalfopristin from EFSA 2008; cited from earlier work
Lactobacillus plantarum = conditions: Table 4 (L. plantarum); Linezolid from EFSA 2005, Quinupristin/Dalfopristin from EFSA 2008; cited from earlier work
[5] = Lacticaseibacillus paracasei, DSM32258, Etest strips in agar, strain Lactobacillus paracasei LMC-8 ID 1954 DSM 32258, read-out: MIC
[6] = Etest strips in agar, Commercial Lactobacillus reference strain, read-out: MIC
[7] = Lactiplantibacillus plantarum, DSM32252, Etest strips in agar, strain Lactobacillus plantarum LMC-1 ID 1952 DSM 32252, read-out: MIC
[8] = Etest strips in agar, Commercial Bifidobacterium reference strain, read-out: MIC
[9] = Lacticaseibacillus paracasei, DSM32254, Etest strips in agar, strain Lactobacillus paracasei LMC-4 ID 1953 DSM 32254, read-out: MIC
[10] = Etest strips in agar, strain Lactobacillus paracasei LMC-8 ID 1954 DSM 32258
[11] = Etest strips in agar, Commercial Lactobacillus reference strain
[12] = Etest strips in agar, strain Lactobacillus plantarum LMC-1 ID 1952 DSM 32252
[13] = Etest strips in agar, Commercial Bifidobacterium reference strain
[14] = Etest strips in agar, strain Lactobacillus paracasei LMC-4 ID 1953 DSM 32254
[15] = Lacticaseibacillus paracasei, DSM32258
[16] = Lacticaseibacillus paracasei, DSM32254

Row | Molecule | MIC [1, 5] | MIC (Commercial Lactobacillus; [6]) | MIC [2, 7] | MIC [3, 8] | MIC [4, 9] | EFSA Limit 2012 (Lactobacillus paracasei) | EFSA Limit 2012 (Lactobacillus plantarum) | also measured
1 | CC1(C)S[C@@H]2[C@H](NC(=O)[C@H](N)c3ccc(O)cc3)C(=O)N2[C@H]1C(=O)O [Amoxicillin] | 0.5 µg/mL (≈ 1.37 µM) | 0.5 µg/mL (≈ 1.37 µM) | 0.19 µg/mL (≈ 0.52 µM) | 0.064 µg/mL (≈ 0.175 µM) | 0.25 µg/mL (≈ 0.684 µM) |  |  | 
2 | CC1(C)S[C@@H]2[C@H](NC(=O)[C@H](N)c3ccccc3)C(=O)N2[C@H]1C(=O)O [Ampicillin] | 0.38 µg/mL (≈ 1.09 µM) | 0.5 µg/mL (≈ 1.43 µM) | 0.032 µg/mL (≈ 0.0916 µM) | 0.016 µg/mL (≈ 0.0458 µM) | 0.094 µg/mL (≈ 0.269 µM) | 4 µg/mL | 2 µg/mL | 
3 | CC[C@H]1OC(=O)[C@H](C)[C@@H](O[C@H]2C[C@@](C)(OC)[C@@H](O)[C@H](C)O2)[C@H](C)[C@@H](O[C@@H]2O[C@H](C)C[C@H](N(C)C)[C@H]2O)[C@](C)(O)C[C@@H](C)CN(C)[C@H](C)[C@@H](O)[C@]1(C)O [Azithromycin] | 0.75 µg/mL (≈ 1 µM) | 0.38 µg/mL (≈ 0.507 µM) | 2 µg/mL (≈ 2.67 µM) | 0.75 µg/mL (≈ 1 µM) | 0.5 µg/mL (≈ 0.668 µM) |  |  | 
4 | CO[C@@]1(NC(=O)Cc2cccs2)C(=O)N2C(C(=O)O)=C(COC(N)=O)CS[C@@H]21 [Cefoxitin] | > 256 µg/mL | > 256 µg/mL | 64 µg/mL (≈ 150 µM) | 1 µg/mL (≈ 2.34 µM) | > 256 µg/mL |  |  | 
5 | CO/N=C(\C(=O)N[C@@H]1C(=O)N2C(C(=O)O)=C(COC(N)=O)CS[C@H]12)c1ccco1 [Cefuroxime] | 1 µg/mL (≈ 2.36 µM) | 1.5 µg/mL (≈ 3.53 µM) | 0.064 µg/mL (≈ 0.151 µM) | 0.25 µg/mL (≈ 0.589 µM) | 0.75 µg/mL (≈ 1.77 µM) |  |  | 
6 | O=C(O)c1cn(C2CC2)c2cc(N3CCNCC3)c(F)cc2c1=O [Ciprofloxacin] | 1 µg/mL (≈ 3.02 µM) | 1 µg/mL (≈ 3.02 µM) | > 32 µg/mL | 4 µg/mL (≈ 12.1 µM) | 0.75 µg/mL (≈ 2.26 µM) |  |  | 
7 | CC[C@H]1OC(=O)[C@H](C)[C@@H](O[C@H]2C[C@@](C)(OC)[C@@H](O)[C@H](C)O2)[C@H](C)[C@@H](O[C@@H]2O[C@H](C)C[C@H](N(C)C)[C@H]2O)[C@](C)(OC)C[C@@H](C)C(=O)[C@H](C)[C@@H](O)[C@]1(C)O [Clarithromycin] | 0.094 µg/mL (≈ 0.126 µM) | 0.047 µg/mL (≈ 0.0628 µM) | 0.25 µg/mL (≈ 0.334 µM) | 0.032 µg/mL (≈ 0.0428 µM) | 0.047 µg/mL (≈ 0.0628 µM) |  |  | 
8 | CCC[C@@H]1C[C@@H](C(=O)N[C@@H]([C@H]2O[C@H](SC)[C@H](O)[C@@H](O)[C@H]2O)[C@H](C)Cl)N(C)C1 [Clindamycin] | 0.094 µg/mL (≈ 0.221 µM) | 0.5 µg/mL (≈ 1.18 µM) | 2 µg/mL (≈ 4.71 µM) | 0.047 µg/mL (≈ 0.111 µM) | 0.064 µg/mL (≈ 0.151 µM) |  |  | 
9 | O=C(N[C@H](CO)[C@H](O)c1ccc([N+](=O)[O-])cc1)C(Cl)Cl [Cloramphenicol] |  |  |  |  |  | 4 µg/mL | 8 µg/mL | MIC [1, 10]: 2.0 µg/mL (≈ 6.19 µM); MIC (Commercial Lactobacillus; [11]): 3 µg/mL (≈ 9.28 µM); MIC [2, 12]: 2 µg/mL (≈ 6.19 µM); MIC [3, 13]: 0.75 µg/mL (≈ 2.32 µM); MIC [4, 14]: 1.5 µg/mL (≈ 4.64 µM)
10 | CC[C@H]1OC(=O)[C@H](C)[C@@H](O[C@H]2C[C@@](C)(OC)[C@@H](O)[C@H](C)O2)[C@H](C)[C@@H](O[C@@H]2O[C@H](C)C[C@H](N(C)C)[C@H]2O)[C@](C)(O)C[C@@H](C)C(=O)[C@H](C)[C@@H](O)[C@]1(C)O [Erythromycin] |  | 0.032 µg/mL (≈ 0.0436 µM) | 0.75 µg/mL (≈ 1.02 µM) | 0.094 µg/mL (≈ 0.128 µM) |  | 1 µg/mL | 1 µg/mL | MIC [1, 15]: 0.125 µg/mL (≈ 0.17 µM); MIC [4, 16]: 0.125 µg/mL (≈ 0.17 µM)
11 | C[C@@H](O)[C@H]1C(=O)N2C(C(=O)O)=C(SCCN=CN)C[C@H]12 [Imipenem] | 0.75 µg/mL (≈ 2.51 µM) | 2 µg/mL (≈ 6.68 µM) | 0.047 µg/mL (≈ 0.157 µM) | 0.25 µg/mL (≈ 0.835 µM) | 1.5 µg/mL (≈ 5.01 µM) |  |  | 
12 | NC[C@H]1O[C@H](O[C@H]2[C@H](O)[C@@H](O[C@H]3O[C@H](CO)[C@@H](O)[C@H](N)[C@H]3O)[C@H](N)C[C@@H]2N)[C@H](O)[C@@H](O)[C@@H]1O [Kanamycin] | 64 µg/mL (≈ 132 µM) | 128 µg/mL (≈ 264 µM) | 64 µg/mL (≈ 132 µM) |  | 24 µg/mL (≈ 49.5 µM) |  |  | 
13 | CC(=O)NC[C@H]1CN(c2ccc(N3CCOCC3)c(F)c2)C(=O)O1 [Linezolid] | 1.5 µg/mL (≈ 4.45 µM) | 2 µg/mL (≈ 5.93 µM) | 1.5 µg/mL (≈ 4.45 µM) | 0.38 µg/mL (≈ 1.13 µM) | 0.38 µg/mL (≈ 1.13 µM) | 4 µg/mL | 4 µg/mL | 
14 | CO[C@H]1/C=C/O[C@@]2(C)Oc3c(C)c(O)c4c(O)c(c(/C=N/N5CCN(C)CC5)c(O)c4c3C2=O)NC(=O)/C(C)=C\C=C\[C@H](C)[C@H](O)[C@@H](C)[C@@H](O)[C@@H](C)[C@H](OC(C)=O)[C@@H]1C [Rifampicin] | 0.032 µg/mL (≈ 0.0389 µM) | 0.094 µg/mL (≈ 0.114 µM) | 0.25 µg/mL (≈ 0.304 µM) | 0.094 µg/mL (≈ 0.114 µM) | 0.016 µg/mL (≈ 0.0194 µM) |  |  | 
15 | [H]/N=C(/N)N[C@H]1[C@H](O)[C@@H](O)[C@H](O[C@@H]2O[C@@H](C)[C@](O)(C=O)[C@H]2O[C@@H]2O[C@@H](CO)[C@H](O)[C@@H](O)[C@@H]2NC)[C@@H](N/C(N)=N\[H])[C@@H]1O [Streptomycin] | 24 µg/mL (≈ 41.3 µM) | 12 µg/mL (≈ 20.6 µM) | 16 µg/mL (≈ 27.5 µM) | 64 µg/mL (≈ 110 µM) | 12 µg/mL (≈ 20.6 µM) | 64 µg/mL |  | 
16 | CN(C)[C@@H]1C(O)=C(C(N)=O)C(=O)[C@@]2(O)C(O)=C3C(=O)c4c(O)cccc4[C@@](C)(O)[C@H]3C[C@@H]12 [Tetracycline] | 0.38 µg/mL (≈ 0.855 µM) | 0.5 µg/mL (≈ 1.13 µM) | 12 µg/mL (≈ 27 µM) | 8 µg/mL (≈ 18 µM) | 0.19 µg/mL (≈ 0.428 µM) |  |  | 
17 | CN[C@H](CC(C)C)C(=O)N[C@H]1C(=O)N[C@@H](CC(N)=O)C(=O)N[C@H]2C(=O)N[C@H]3C(=O)N[C@H](C(=O)N[C@H](C(=O)O)c4cc(O)cc(O)c4-c4cc3ccc4O)[C@H](O)c3ccc(c(Cl)c3)Oc3cc2cc(c3O[C@@H]2O[C@H](CO)[C@@H](O)[C@H](O)[C@H]2O[C@H]2C[C@](C)(N)[C@H](O)[C@H](C)O2)Oc2ccc(cc2Cl)[C@H]1O [Vancomycin] |  |  |  |  |  |  |  | MIC [1, 15]: > 256 µg/mL; MIC (Commercial Lactobacillus; Lactobacillus): > 256 µg/mL; MIC ([2]; Lactiplantibacillus plantarum, DSM32252): > 256 µg/mL; MIC ([3]; Bifidobacterium): 0.38 µg/mL (≈ 0.262 µM); MIC [4, 16]: > 256 µg/mL
18 | Gentamicin |  |  |  |  |  | 32 µg/mL | 16 µg/mL | MIC [1, 10]: 4 µg/mL; MIC (Commercial Lactobacillus; [11]): 6 µg/mL; MIC [2, 12]: 4 µg/mL; MIC [3, 13]: 48 µg/mL; MIC [4, 14]: 2 µg/mL
19 | Quinupristin/Dalfopristin |  |  |  |  |  | 4 µg/mL | 4 µg/mL | MIC [1, 10]: 0.25 µg/mL; MIC (Commercial Lactobacillus; [11]): 1 µg/mL; MIC [2, 12]: 0.38 µg/mL; MIC [3, 13]: 0.25 µg/mL; MIC [4, 14]: 0.094 µg/mL
